In patent publication US20110124634A1, “BIOACTIVE COMPOUNDS FOR TREATMENT OF CANCER AND NEURODEGENERATIVE DISEASES” (PONIARD PHARMACEUTICALS, INC., priority 2008, published 2011):
Read-outs that look alike come from different tables or passages of the source.

How the values were obtained:
BT474 = test: MTS assay (cytotoxicity), growth inhibition of BT474; format: cell-based; conditions: Homo sapiens, BT-474, 120 h
Experimental: (§1) Cells were seeded in 96-well plates at 2000 cells/well in a final culture volume of 100 ul for 24 hours before the addition of 25 ul of increasing concentrations of inhibitors that was incubated for 5 days. Viable cell number was determined using the CellTiter 96 AQueous One Solution Cell Proliferation Assay (Promega). Plates were read at 490 nm absorbance 2-4 hours after addition of the MTS reagent using a multiwell plate spectrophotometer. Background was determined by measuring the Abs 490 nm of cell culture medium and MTS in the absence of cells. The background value was subtracted from all values. Absorbance 490 nm values for each inhibitor were plotted against the log 10 inhibitor concentration, and IC50 values were calculated using a nonlinear least-square curve fitting program in Prism 5.

MCF-7 = test: MTS assay (cytotoxicity), growth inhibition of MCF-7; format: cell-based; conditions: Homo sapiens, MCF7, 120 h
Experimental: as §1

[1] = system: HSP90 client protein Her2 in SKBR-3 cells; test: Her-2 degradation assay (Her-2 ELISA) in SKBr-3 cells; format: cell-based; conditions: Homo sapiens
Experimental: (§2) Most of the compounds synthesized were evaluated for their ability to induce degradation of the HSP90 client protein Her2 in SKBR-3 cells. Selected compounds were evaluated in a fluorescence polarization (FP) assay for their affinity to HSP90.
SKBr-3 cells grown in McCoy's 5a Medium supplemented with 10% fetal bovine serum (FBS) were plated into 12-well plates at 50% confluency. Increasing concentrations of inhibitors were added 24 hours later (cells are 65-70% confluent) and incubated overnight for 18 hours. The wells were washed with 2 ml of phosphate buffered saline (PBS), and 50 ul of trypsin was added to each well. After trypsinization was complete, 150 ul of FBS was added to each well. Then 200 ul of cells were transferred to 96-well plates and plates were centrifuged at 1200 rpm for 2 minutes using a tabletop centrifuge. The cells were washed once with 250 ul PBS before being lysed with 100 ul of 50 mM Tris (pH 7.4), 0.1% NP-40 lysis buffer. Protein concentrations of clarified lysates were determined using the BCA Assay (Calbiochem) according to the manufacturer's instructions. 2 ug of each lysate was analyzed in the human sp 185 Her-2 ELISA (Bender Medsystems) according to the manufacturer's instructions. ELISA plates were read at 450 nm using a multiwell plate spectrophotometer. Background was determined by measuring the Abs 450 nm of wells with no lysate added. The background value was subtracted from all values. Absorbance 450 nm values for each inhibitor were plotted against the log 10 inhibitor concentration, and IC50 values were calculated using a nonlinear least-square curve fitting program in Prism 5.

HT29 = test: MTS assay (cytotoxicity), growth inhibition of HT29; format: cell-based; conditions: Homo sapiens, HT-29, 120 h
Experimental: as §1

SKBR-3 = test: MTS assay (cytotoxicity), growth inhibition of SKBR-3; format: cell-based; conditions: Homo sapiens, SK-BR-3, 120 h
Experimental: as §1

HSP90 = test: Fluorescence polarization (FP) assay for affinity to HSP90; format: binding; conditions: means of three independent experiments
Experimental: as §2

hMEpiC = test: MTS assay (cytotoxicity), growth inhibition of human mammary epithelial cell; format: cell-based; conditions: Table 4, means of three independent experiments
Experimental: as §1

[2] = Table 4, 5 days, means of three independent experiments, read-out: BT474 IC50 (growth inhibition)
[3] = Table 4, 5 days, means of three independent experiments, read-out: MCF-7 IC50 (growth inhibition)
[4] = SK-BR-3, Table 1, series I, 18 hours, means of three independent experiments
[5] = Table 4, 5 days, means of three independent experiments, read-out: HT29 IC50 (growth inhibition)
[6] = Table 4, 5 days, means of three independent experiments, read-out: SKBR-3 IC50 (growth inhibition)
[7] = SK-BR-3, Table 2, 18 hours, means of three independent experiments
[8] = Table 5, series III, 5 days, read-out: Growth Inhibition (IC50) BT474
[9] = Table 5, series III, 5 days, read-out: Growth Inhibition (IC50) MCF-7
[10] = SK-BR-3, Table 5, series III, 18 hours
[11] = Table 5, series III, 5 days, read-out: Growth Inhibition (IC50) HT29
[12] = Table 5, series III, 5 days, read-out: Growth Inhibition (IC50) SKBR-3

IC50 [1, 10]	Compound	IC50 (BT474; [2])	IC50 (MCF-7; [3])	IC50 (HT29; [5])	IC50 (SKBR-3; [6])	IC50 (BT474; [8])	IC50 (MCF-7; [9])	IC50 (HT29; [11])	IC50 (SKBR-3; [12])	also measured
	COc1c(C)cnc(CN2CC(=O)Nc3c(Cl)nc(N)nc32)c1C [Example I-2]	0.65 µM	1.49 µM	1.18 µM	0.39 µM					IC50 [1, 4]: 0.57 µM; IC50 (HSP90; Table 1, series I): 0.88 µM
	COc1c(C)cnc(CN2CC(=O)N(CCCC(C)C)c3c(Cl)nc(N)nc32)c1C [Example I-3]	1.65 µM	3.11 µM	2.26 µM	0.97 µM					IC50 [1, 4]: 1.91 µM; IC50 (HSP90; Table 1, series I): 0.9 µM
	COc1c(C)cnc(CN2CC(=O)N(C(C)C)c3c(Cl)nc(N)nc32)c1C [Example I-4]	0.03 µM	0.05 µM	0.06 µM	0.02 µM					IC50 (hMEpiC): 0.32 µM; IC50 [1, 4]: 0.05 µM; IC50 (HSP90; Table 1, series I): 0.07 µM
	COc1c(C)cnc(CN2CC(=O)N(C)c3c(Cl)nc(N)nc32)c1C [Example I-5]	0.95 µM	2.19 µM	1.47 µM	0.46 µM					IC50 [1, 4]: 0.93 µM; IC50 (HSP90; Table 1, series I): 0.96 µM
	COc1c(C)cnc(CN2CC(=O)N(CC(C)C)c3c(Cl)nc(N)nc32)c1C [Example I-6]	0.02 µM	0.07 µM	0.04 µM	0.01 µM					IC50 (hMEpiC): 0.13 µM; IC50 [1, 4]: 0.04 µM; IC50 (HSP90; Table 1, series I): 0.05 µM; IC50 (HSP90; Table 2): 0.05 µM
	COc1c(C)cnc(CN2c3nc(N)nc(Cl)c3NC(=O)[C@@H]2CCO)c1C [Example I-25]									IC50 [1, 7]: 0.28 µM; IC50 (HSP90; Table 2): 0.64 µM
	COc1c(C)cnc(CN2c3nc(N)nc(Cl)c3NC(=O)[C@H]2C)c1C [Example I-26]	0.41 µM	0.79 µM	0.47 µM	0.22 µM					IC50 [1, 7]: 0.35 µM; IC50 (HSP90; Table 2): 0.4 µM
	COc1c(C)cnc(CN2c3nc(N)nc(Cl)c3NC(=O)[C@@H]2C(C)C)c1C [Example I-28]	0.76 µM	1.6 µM	1.06 µM	0.43 µM					IC50 [1, 7]: 0.65 µM; IC50 (HSP90; Table 2): 2.14 µM
	COc1c(C)cnc(CN2c3nc(N)nc(Cl)c3N(C(C)C)C(=O)[C@@H]2C(C)C)c1C [Example I-32]									IC50 [1, 7]: 0.06 µM; IC50 (HSP90; Table 2): 0.08 µM
	Cc1cnc(CN2CC(=O)N(CC(C)C)c3c(Cl)nc(N)nc32)c(C)c1Br [Example I-34]	0.13 µM	0.28 µM	0.14 µM	0.06 µM					IC50 (hMEpiC): 0.18 µM; IC50 ([1]; SK-BR-3, Table 3, 18 hours, means of three independent experiments): 0.1 µM; IC50 (HSP90; Table 3): 0.06 µM
0.11 µM	COc1c(C)cnc(CN2C(=O)/C(=C\c3cc(C(=O)NCCCN4CCCC4)c[nH]3)c3c(Cl)nc(N)nc32)c1C [III-28, (Z)-5-((2-Amino-4-chloro-7-((4-methoxy-3,5-dimethylpyridin-2-yl)methyl)-6-oxo-6,7-dihydro-5H-pyrrolo[2,3-d]pyrimidin-5-ylidene)methyl)-N-(3-(pyrrolidin-1-yl)propyl)-1H-pyrrole-3-carboxamide]					0.02 µM	0.89 µM	0.05 µM	0.04 µM	
0.05 µM	COc1c(C)cnc(CN2C(=O)/C(=C\c3cc(C(=O)NCCN(CCO)CCO)c[nH]3)c3c(Cl)nc(N)nc32)c1C [III-30, (Z)-5-((2-Amino-4-chloro-7-((4-methoxy-3,5-dimethylpyridin-2-yl)methyl)-6-oxo-6,7-dihydro-5H-pyrrolo[2,3-d]pyrimidin-5-ylidene)methyl)-N-(2-(bis(2-hydroxyethyl)amino)ethyl)-1H-pyrrole-3-carboxamide]					0.07 µM	0.68 µM	0.21 µM	0.02 µM	
0.04 µM	COc1c(C)cnc(CN2C(=O)/C(=C\c3cc(C(=O)NCCN4CCC(O)CC4)c[nH]3)c3c(Cl)nc(N)nc32)c1C [III-33, (Z)-5-((2-Amino-4-chloro-7-((4-methoxy-3,5-dimethylpyridin-2-yl)methyl)-6-oxo-6,7-dihydro-5H-pyrrolo[2,3-d]pyrimidin-5-ylidene)methyl)-N-(2-(4-hydroxypiperidin-1-yl)ethyl)-1H-pyrrole-3-carboxamide]					0.003 µM	0.11 µM	0.02 µM	0.0006 µM	
0.02 µM	COc1c(C)cnc(CN2C(=O)/C(=C\c3cc(C(=O)NCCCN4CCOCC4)c[nH]3)c3c(Cl)nc(N)nc32)c1C [III-34, (Z)-5-((2-Amino-4-chloro-7-((4-methoxy-3,5-dimethylpyridin-2-yl)methyl)-6-oxo-6,7-dihydro-5H-pyrrolo[2,3-d]pyrimidin-5-ylidene)methyl)-N-(3-morpholinopropyl)-1H-pyrrole-3-carboxamide]					0.04 µM	0.17 µM	0.02 µM	0.01 µM	
0.06 µM	COc1c(C)cnc(CN2C(=O)/C(=C\c3cc(C(C)(C)C)n[nH]3)c3c(Cl)nc(N)nc32)c1C [III-52, (Z)-2-Amino-5-((3-tert-butyl-1H-pyrazol-5-yl)methylene)-4-chloro-7-((4-methoxy-3,5-dimethylpyridin-2-yl)methyl)-5H-pyrrolo[2,3-d]pyrimidin-6(7H)-one]					0.41 µM	0.19 µM	0.24 µM	0.14 µM	
0.1 µM	CCN(CC)CCNC(=O)c1c[nH]c(/C=C2\C(=O)N(Cc3cc(C)n(C)n3)c3nc(N)nc(Cl)c32)c1 [III-59, (Z)-5-((2-Amino-4-chloro-7-((1,5-dimethyl-1H-pyrazol-3-yl)methyl)-6-oxo-6,7-dihydro-5H-pyrrolo[2,3-d]pyrimidin-5-ylidene)methyl)-N-(2-(diethylamino)ethyl)-1H-pyrrole-3-carboxamide]					0.16 µM	1.7 µM	0.32 µM	0.06 µM	
0.09 µM	COc1c(C)cnc(CN2C(=O)/C(=C\c3nc(NC(=O)C4CCOCC4)c[nH]3)c3c(Cl)nc(N)nc32)c1C [III-75, (Z)-N-(2-((2-Amino-4-chloro-7-((4-methoxy-3,5-dimethylpyridin-2-yl)methyl)-6-oxo-6,7-dihydro-5H-pyrrolo[2,3-d]pyrimidin-5-ylidene)methyl)-1H-imidazol-4-yl)tetrahydro-2H-pyran-4-carboxamide]					0.06 µM	0.16 µM	0.05 µM	0.007 µM	
0.08 µM	COc1c(C)cnc(CN2C(=O)/C(=C\c3cc(C(=O)CN4CCC(C(F)(F)F)CC4)c[nH]3)c3c(Cl)nc(N)nc32)c1C [III-94]					0.79 µM	0.39 µM	0.35 µM	0.09 µM	
0.04 µM	CCN(CC)CCNC(=O)c1c(C)[nH]c(/C=C2\C(=O)N(Cc3ncc(C)c(OC)c3C)c3nc(N)nc(Cl)c32)c1C [III-102, (Z)-5-((2-Amino-4-chloro-7-((4-methoxy-3,5-dimethylpyridin-2-yl)methyl)-6-oxo-6,7-dihydro-5H-pyrrolo[2,3-d]pyrimidin-5-ylidene)methyl)-N-(2-(diethylamino)ethyl)-2,4-dimethyl-1H-pyrrole-3-carboxamide]					0.07 µM	21.3 µM	0.03 µM	0.01 µM	
